Results: patent EP0655457A1, “MORANOLINE DERIVATIVE” (NIPPON SHINYAKU COMPANY, LIMITED, priority 1992, dated 1994)

Tested on: ELAM-1 dependent adhesion of cultured human leukemia HL60 cells
Experiment: Binding of HL60 cells to IL-1β-activated human vascular endothelial cells (cell adhesion count)
Type: cell-based
Details: for Cell adhesion count (%): % of control (HL60 bound to IL-1β-activated HUVEC = 100%); for Cell adhesion count: adhered HL60 cells on HUVEC activated with IL-1β 10U/ml
Procedure: The effect of the synthetic sugar on the binding of activated human vascular endothelial cells and cultured human leukemia HL60 cells
Cultured human vascular endothelial cells were separated from the human umbilical vein by collagenase treatment and cultured in a culture flask coated with 1% gelatin or fibronectin at a concentration of 0.02 mg/cm². The growth medium used was prepared by adding 15% fetal calf serum (FCS), 45 mg/l ECGS, 90 mg/l heparin and 40 mg/l gentamicin to medium 199. The proliferation of the cultured human leukemia cell line HL60 was maintained using 10% FCS-containing RPMI-1640. Both cells were cultured in a CO₂ incubator (5% CO₂, 95% air) at 37°C.
The cultured human umbilical vein endothelial cells (HUVEC) were seeded on a 96-well microtiter plate which had been precoated with 0.1% gelatin and were incubated until the growth became confluent. After the cells were washed with 10% FCS-containing Dulbecco's modified Eagle's medium (DMEM), 100 µl of 10% FCS-DMEM containing recombinant human interleukin-1β (IL-1β) was added. The cells were then cultured in a CO₂ incubator at 37°C for 4 hours (activation). The HL60 cells were washed twice with serum-free DMEM, suspended in 0.5% glutaldehyde-containing Hanks' solution and fixed on wet ice for 30 minutes.
The fixed cells were washed twice with serum-free DMEM to remove the fixative. Then, 10% FCS-containing DMEM was added to the cells so as to provide a suspension of 2x10⁶ cells/ml, which was then preserved on wet ice till use.
The HUVEC activated above was washed with 10% FCS-containing DMEM and 50µl of 10% FCS-DMEM containing either anti-ELAM-1 antibody (BBA 2, British Biotechnology Ltd., Abinton) or the test substance was added followed by incubation at room temperature for 30 minutes. The fixed HL60 cells were added in 50 µl aliquots and the incubation was further continued at room temperature for 45 minutes.
After the unbound HL60 cells were washed off, the center of each well was photographed and the number of adhered cells in the photographing field was counted. With the number of HL60 cells bound to the IL-1β-activated HUVEC being taken as 100%, the effect of addition of the test substance was evaluated.

[1] = concentration of 100 µg/ml, referring to Table 1
[2] = concentration of 500 µg/ml, referring to Table 2

Compound | Cell adhesion count (%) (Table 1, 100 µg/ml, n=5) | Cell adhesion count (Table 1, 100 µg/ml, n=5) | inhibit the adhesion of HL60 cells to activated HUVEC [1] | Cell adhesion count (%) (Table 2, 50 µg/ml, n=6) | Cell adhesion count (Table 2, 50 µg/ml, n=6) | Cell adhesion count (%) (Table 2, 500 µg/ml, n=6) | Cell adhesion count (Table 2, 500 µg/ml, n=6) | inhibit the adhesion of HL60 cells to activated HUVEC [2]
CC(=O)N[C@H]1[C@H]([C@H](O)[C@H](O)CO)O[C@@](OC[C@@H]2[C@H](O)[C@H](O)[C@@H](O)CN2C)(C(=O)O)C[C@@H]1O [Example (11), O-(5-acetamido-3,5-dideoxy-D-glycero-α-D-galacto-2-nonulopyranosylonic acid)-(2→6)-1,5-dideoxy-N-methyl-1,5-imino-D-galactitol] | 40.4% | 155.0 | 59.6% | – | – | – | – | –
CC(=O)N[C@H]1[C@H]([C@H](O)[C@H](O)CO)O[C@@](OC[C@@H]2[C@@H](O)[C@H](O)[C@@H](O)CN2C)(C(=O)O)C[C@@H]1O [Example (9), O-(5-acetamido-3,5-dideoxy-D-glycero-α-D-galacto-2-nonulopyranosylonic acid)-(2→6)-1,5-dideoxy-N-methyl-1,5-imino-D-glucitol] | 49.1% | 188.4 | 50.9% | – | – | – | – | –
CC(=O)N1C(=O)C2(OCC3NCC(O)C(O)C3O)CC(O)C1C(C(O)C(O)CO)O2 [Example (8), 6-O-(5-acetamido-3,5-dideoxy-D-glycero-α-D-galacto-2-nonulopyranosylono-1',5-N-lactam)-1,5-dideoxy-1,5-imino-D-glucitol] | – | – | – | 89.6% | 473.7 | 81.1% | 428.5 | 18.9%
6-O-(5-acetamido-3,5-dideoxy-D-glycero-α-D-galacto-2-nonulopyranosylono-1',5-N-lactam)-1,5-dideoxy-1,5-imino-D-galactitol [Example (10)] | – | – | – | 93.4% | 494.7 | 82.5% | 436.2 | 17.5%
